A value given as a limit tells only on which side of the number the result lay.

Results on 1 compound are retold here after PMC2533715, “Suppressive Effects of Selected Food Phytochemicals on CD74 Expression in NCI-N87 Gastric Carcinoma Cells” (Journal of Clinical Biochemistry and Nutrition, 2008).

Series [1] deals with H. pylori-induced gastritis. Details: method as in PMID 14550260. Particulars: Mongolian gerbils; cited from earlier work.
Series [2] deals with H. pylori urease. Details: method as in PMID 14550260. Particulars: in vitro; cited from earlier work.
Series [3] in a line: Cell viability (MTT). Particulars: human.
For series [4], the system named is CD74. Description: Cell-based ELISA for constitutive CD74 expression. Set-up: species or system human. Particulars: 48 h, NCI-N87 cells; for IR (%) inhibition rate of CD74 expression: mean ± average deviation. Background: An ELISA detects its analyte on a solid surface through an enzyme-linked reagent.
Where [5] appears, read: NCI-N87 gastric carcinoma cells.

As usually defined, the CC50 is the concentration at which the toxic effect on the cells reaches its halfway point. Low values mean greater toxicity to the cells, high ones lower toxicity to the cells. By viability is commonly meant a per cent measure of how many cells are alive, often set against a control. As for `O=C(OC1Cc2c(O)cc(O)cc2OC1c1cc(O)c(O)c(O)c1)c1cc(O)c(O)c(O)c1` (single isomer, unassigned; (-)) [EGCG, (−)-epigallocatechin-3-gallate], the H. pylori-induced gastritis result in series [1] is “suppressed”. Further, the “H. pylori urease activity” value in series [2] was “strongly inhibited”. This compound also yielded a CC50 at 48 h in series [3] of over 100 µM. In series [3] (setting [5]), this compound came in with a viability at 48 h, 4 µM of 78 ± 6.3%; a viability at 48 h, 20 µM of 77 ± 3.1%; a viability at 48 h, 100 µM of 78 ± 5%. Further, the “IR (%) inhibition rate of CD74 expression” value (“IR (%) inhibition rate” below) in series [4] (4 µM) is given as −110 ± 8.3%. In addition, in series [4] (20 µM), the “IR (%) inhibition rate” value was −149 ± 3.8%. Further, the “IR (%) inhibition rate” value in series [4] (100 µM) is recorded as −217 ± 4.0%. The “Suppression of CD74 expression (in words)” value in series [4] is recorded as “did not suppress CD74 expression, but rather enhanced it”. Further, in series [4] (mean of duplicate experiments, unit printed in b25 only, read-out: IC50 (50% inhibitory concentration) for constitutive CD74 expression), the IC50 is over 100 µM.
